Assay results taken from patent US11382907B2, “Methods and compositions for treating aging-associated impairments using CCR3-inhibitors” (Alkahest, Inc., priority 2017, dated 2022).

Key:
[1] = system: two-month-old C57Bl/6 mice treated with rmCCL11; test: Y-maze test in young mice given recombinant mouse CCL11; format: in vivo; conditions: 2-month-old mice; rmCCL11 i.p.; Compound 1 30 mg/kg p.o. b.i.d.
Protocol: A large Y-maze test assesses short-term memory of the familiarity of a specific context. Mice are brought to the experimental room for at least 30 min of acclimation to the experimental room conditions (dim lighting) prior to testing. For the initial training trial, the mouse is placed at the end of one arm of a large Y-maze designated “start arm” (arm length: 15 inches). The third arm of the maze is blocked off, allowing the mouse to explore two of the three arms freely (“start arm” and “familiar arm”) for 5 min. Each arm contains spatial cues. One hour later, the mouse is placed back into the maze in the “start arm” and allowed to explore all three arms with the third arm unblocked (“novel arm”). Movements in and out of each arm are tracked using automated tracking software (CleverSys). Testing is performed under dim lighting, and the apparatus is cleaned with 70% ethanol between trials.
Two-month-old C57Bl/6 mice were dosed with either vehicle control or Compound 1 by oral gavage twice daily for 18 days. During the last week of treatment, mice were subjected to behavior testing prior to perfusion on the last day of treatment. All mice received 5 consecutive days of BrdU injection at 150 mg/kg IP immediately prior to treatment start. […]

[2] = system: BrdU-positive cells in the hippocampus; test: Histology: BrdU positive cells in hippocampus of aged mice; format: in vivo, C57Bl/6 mice
Protocol: For fluorescent microscopy, the following antibodies were used in the given concentrations: GFAP, 1:500, DAKO; Iba1, 1:1000, Wako; and BrdU, 1:500, AbCam. Antigen retrieval protocol was required for BrdU (2N HCl, 37 C, 30 min) prior to blocking. The appropriate fluorescent secondary antibodies were applied the next day at a concentration of 1:300 for one hour at room temperature. Prolong Gold Mounting Media was used to coverslip the slides. Images were acquired on a light microscope at 5× magnification.
Two-month-old or 18-month-old C57Bl/6 mice were dosed with either IgG antibody control by IP injection or Compound 1 subcutaneously by Alzet osmotic pump for either 2 or 4 weeks. During the last week of treatment, mice were subjected to behavior testing prior to perfusion on the last day of treatment. All mice received 5 consecutive days of BrdU injection at 150 mg/kg IP immediately prior to treatment start. […]

Cc1cc(C(=O)N(C)C)cc(NC(=O)[C@H]2CCC(=O)N2C2CCN(Cc3ccc(Cl)c(C)c3)CC2)n1 [Compound 1]
memory in the Y-maze [1]: no longer significantly different from control mice | BrdU-positive cells in the hippocampus ([2]; 16.5-month-old mice, four-week dosing by pump): significantly increased the number of BrdU-positive cells | BrdU-positive cells in the hippocampus ([2]; 18-month-old mice, higher dosing for 2 weeks by pump): trend in increased BrdU-positive cells
